Key:
Assay type in all cases: in vivo
[1] = tested on: Pharbitis purpureum (PHBPU); test: Post-emergence herbicidal action against weed plants; conditions: scored after 3 to 4 weeks
Experimental: (§1) [table] 2. Post-emergence Herbicidal Action Against Weed Plants Seeds of monocotyledonous and dicotyledonous weed plants are set out in cardboard pots in sandy loam soil, covered with soil, and cultivated under glass under good growth conditions. Two to three weeks after sowing, the trial plants are treated at the three-leaf stage. The compounds according to the invention, formulated as wettable powders or as emulsifiable concentrates, are sprayed onto the surface of the green parts of the plants, at a water application rate of 600 to 800 l/ha (converted). After the trial plants have stood for 3 to 4 weeks under optimum growth conditions under glass, the action of the compounds according to the invention is scored in comparison to compounds disclosed in the prior art.

[2] = tested on: Setaria viridis (SETVI); test: as above; conditions: dose 80 g a.c./ha, scored after 3 to 4 weeks, Comparison Table 11
Experimental: as §1

[3] = tested on: Viola tricolor (VIOTR); test: as above; conditions: dose 80 g a.c./ha, scored after 3 to 4 weeks, Comparison Table 11
Experimental: as §1

[4] = tested on: Setaria viridis (SETVI); test: Pre-emergence herbicidal action against weed plants; conditions: dose 80 g a.c./ha, scored after 3 to 4 weeks, Comparison Table 5
Source text: (§2) 1. Pre-emergence Herbicidal Action Against Weed Plants Seeds or rhizome sections of mono- and dicotyledonous weed plants are set out in pots of 9 to 13 cm in diameter, in sandy loam soil, and are covered with soil. The herbicides, formulated as emulsifiable concentrates or dusts, are applied to the surface of the covering earth in the form of aqueous dispersions or suspensions or emulsions, at a water application rate of 300 to 800 l/ha (converted). The pots are then maintained under glass under optimum conditions for the further cultivation of the plants. After 3 to 4 weeks under optimum growth conditions under glass, the trial plants are scored for the effect of the compounds according to the invention in comparison to compounds disclosed in the prior art. […] [table]

[5] = tested on: Viola tricolor (VIOTR); test: as above; conditions: scored after 3 to 4 weeks
Source text: as §2

[6] = tested on: Echinochloa crus galli (ECHCG); test: Post-emergence herbicidal action against weed plants; conditions: dose 80 g a.c./ha, scored after 3 to 4 weeks
Experimental: as §1

[7] = tested on: Matricaria inodora (MATIN); test: as above; conditions: dose 80 g a.c./ha, scored after 3 to 4 weeks
Experimental: as §1

[8] = tested on: Avena fatua (AVEFA); test: Pre-emergence herbicidal action against weed plants; conditions: dose 320 g a.c./ha, scored after 3 to 4 weeks, Comparison Table 4
Source text: as §2

[9] = tested on: Matricaria inodora (MATIN); test: as above; conditions: dose 320 g a.c./ha, scored after 3 to 4 weeks, Comparison Table 4
Source text: as §2

[10] = tested on: Pharbitis purpureum (PHBPU); test: as above; conditions: scored after 3 to 4 weeks
Source text: as §2

[11] = tested on: Alopecurus myosuroides (ALOMY); test: Post-emergence herbicidal action against weed plants; conditions: scored after 3 to 4 weeks
Experimental: as §1

[12] = tested on: Amaranthus retroflexus (AMARE); test: as above; conditions: dose 80 g a.c./ha, scored after 3 to 4 weeks, Comparison Table 8
Experimental: as §1

[13] = dose 80 g a.c./ha, Comparison Table 11
[14] = dose 80 g a.c./ha, Comparison Table 5
[15] = dose 80 g a.c./ha, Comparison Table 9
[16] = dose 320 g a.c./ha, Comparison Table 4
[17] = dose 80 g a.c./ha, Comparison Table 8
[18] = dose 80 g a.i./ha, Comparison Table 7
[19] = dose 80 g a.c./ha, Comparison Table 2
[20] = dose 320 g a.c./ha, Comparison Table 3
[21] = dose 80 g a.c./ha, Comparison Table 10
[22] = dose 320 g a.c./ha, Comparison Table 1
[23] = dose 80 g a.c./ha, Comparison Table 6

Cc1c(C(=O)C2C(=O)C3CCC(C3)C2=O)ccc(C(F)(F)C(F)(F)F)c1S(C)(=O)=O (stereo not drawn) [drawing 33]
Herbicidal action against PHBPU [1, 13]: 90% | Herbicidal action against SETVI [2]: 100% | Herbicidal action against VIOTR [3]: 100%

Cc1nn(C)c(O)c1C(=O)c1ccc(C(F)(F)F)c(S(C)(=O)=O)c1C
Herbicidal action against PHBPU [1, 13]: 80% | Herbicidal action against SETVI [2]: 60% | Herbicidal action against VIOTR [3]: 80%

Cc1c(C(=O)c2cnn(C)c2O)ccc(C(F)(F)F)c1S(C)(=O)=O [drawing 22]
Herbicidal action against SETVI [4]: 60% | Herbicidal action against VIOTR [5, 14]: 50%

Cc1c(C(=O)C2C(=O)C3CCC(C3)C2=O)ccc(C(F)(F)C(F)(F)F)c1S(C)(=O)=O (stereo not drawn) [drawing 29]
Herbicidal action against ECHCG ([6]; Comparison Table 9): 100% | Herbicidal action against MATIN ([7]; Comparison Table 9): 100% | Herbicidal action against PHBPU [1, 15]: 90%

CCn1ncc(C(=O)c2ccc(C(F)(F)F)c(S(C)(=O)=O)c2C)c1O [drawing 20]
Herbicidal action against AVEFA [8]: 40% | Herbicidal action against MATIN [9]: 90% | Herbicidal action against PHBPU [10, 16]: 50%

Cc1nn(C)c(O)c1C(=O)c1ccc(C(F)(F)F)c([S+](C)[O-])c1C (stereo not drawn) [drawing 28]
Herbicidal action against ALOMY [11, 17]: 30% | Herbicidal action against AMARE [12]: 50% | Herbicidal action against PHBPU [1, 17]: 50%

Cc1c(C(=O)C2C(=O)C3CCC(C3)C2=O)ccc(C(F)(F)C(F)(F)F)c1[S+](C)[O-] (stereo not drawn) [drawing 25]
Herbicidal action against ALOMY [11, 18]: 90% | Herbicidal action against PHBPU [1, 18]: 100%

Cc1c(C(=O)c2cnn(C)c2O)ccc(C(F)(F)F)c1S(C)(=O)=O [drawing 30]
Herbicidal action against ECHCG ([6]; Comparison Table 9): 95% | Herbicidal action against MATIN ([7]; Comparison Table 9): 55% | Herbicidal action against PHBPU [1, 15]: 80%

Cc1c(C(=O)C2C(=O)C3CCC(C3)C2=O)ccc(C(F)(F)C(F)(F)F)c1S(C)(=O)=O (stereo not drawn) [drawing 19]
Herbicidal action against AVEFA [8]: 80% | Herbicidal action against MATIN [9]: 100% | Herbicidal action against PHBPU [10, 16]: 90%

Cc1c(C(=O)C2C(=O)C3CCC(C3)C2=O)ccc(C(F)(F)C(F)(F)F)c1[S+](C)[O-] (stereo not drawn) [drawing 27]
Herbicidal action against ALOMY [11, 17]: 90% | Herbicidal action against AMARE [12]: 100% | Herbicidal action against PHBPU [1, 17]: 100%

CCn1ncc(C(=O)c2ccc(C(F)(F)F)c([S+](C)[O-])c2C)c1O (stereo not drawn)
Herbicidal action against PHBPU [10, 19]: 0% | Herbicidal action against VIOTR [5, 19]: 50%

Cc1nn(C)c(O)c1C(=O)c1ccc(C(F)(F)F)c([S+](C)[O-])c1C (stereo not drawn) [drawing 18]
Herbicidal action against PHBPU [10, 20]: 60% | Herbicidal action against VIOTR [5, 20]: 40%

Cc1c(C(=O)C2C(=O)C3CCC(C3)C2=O)ccc(C(F)(F)C(F)(F)F)c1[S+](C)[O-] (stereo not drawn) [drawing 17]
Herbicidal action against PHBPU [10, 20]: 90% | Herbicidal action against VIOTR [5, 20]: 100%

CCn1ncc(C(=O)c2ccc(C(F)(F)F)c(S(C)(=O)=O)c2C)c1O [drawing 32]
Herbicidal action against ECHCG ([6]; Comparison Table 10): 90% | Herbicidal action against MATIN ([7]; Comparison Table 10): 90% | Herbicidal action against PHBPU [1, 21]: 40%

Cc1c(C(=O)c2cnn(C)c2O)ccc(C(F)(F)F)c1[S+](C)[O-] (stereo not drawn) [drawing 14]
Herbicidal action against PHBPU [10, 22]: 50% | Herbicidal action against VIOTR [5, 22]: 90%

Cc1c(C(=O)C2C(=O)C3CCC(C3)C2=O)ccc(C(F)(F)C(F)(F)F)c1[S+](C)[O-] (stereo not drawn) [drawing 15]
Herbicidal action against PHBPU [10, 19]: 80% | Herbicidal action against VIOTR [5, 19]: 100%

Cc1c(C(=O)C2C(=O)C3CCC(C3)C2=O)ccc(C(F)(F)C(F)(F)F)c1S(C)(=O)=O (stereo not drawn) [drawing 31]
Herbicidal action against ECHCG ([6]; Comparison Table 10): 100% | Herbicidal action against MATIN ([7]; Comparison Table 10): 100% | Herbicidal action against PHBPU [1, 21]: 90%

Cc1c(C(=O)c2cnn(C)c2O)ccc(C(F)(F)F)c1[S+](C)[O-] (stereo not drawn) [drawing 26]
Herbicidal action against ALOMY [11, 18]: 60% | Herbicidal action against PHBPU [1, 18]: 80%

Cc1c(C(=O)C2C(=O)C3CCC(C3)C2=O)ccc(C(F)(F)C(F)(F)F)c1S(C)(=O)=O (stereo not drawn) [drawing 21]
Herbicidal action against SETVI [4]: 100% | Herbicidal action against VIOTR [5, 14]: 100%

Cc1c(C(=O)C2C(=O)C3CCC(C3)C2=O)ccc(C(F)(F)C(F)(F)F)c1[S+](C)[O-] (stereo not drawn) [drawing 23]
Herbicidal action against ALOMY [11, 23]: 90% | Herbicidal action against PHBPU [1, 23]: 100%

Cc1c(C(=O)C2C(=O)C3CCC(C3)C2=O)ccc(C(F)(F)C(F)(F)F)c1[S+](C)[O-] (stereo not drawn) [drawing 13]
Herbicidal action against PHBPU [10, 22]: 90% | Herbicidal action against VIOTR [5, 22]: 100%

Cc1c(C(=O)c2cnn(C)c2O)ccc(C(F)(F)F)c1[S+](C)[O-] (stereo not drawn) [drawing 24]
Herbicidal action against ALOMY [11, 23]: 60% | Herbicidal action against PHBPU [1, 23]: 60%

— patent US8603947B2, “(4-haloalkyl-3-thiobenzoyl)cyclohexanediones and use thereof as herbicides” (Bayer Cropscience AG, priority 2010, dated 2013)
